Laboratory results reported in patent US11921105B2, “Method for identifying positive allosteric modulators for odorant receptors” (FIRMENICH SA, priority 2017, dated 2024).
Read-outs that look alike come from different tables or passages of the source.

Columns and labels:
[1] = target: T1, OR10J5 olfactory receptor (Homo sapiens, UniProt Q8NHC4, R233W); experiment: Single point binary mixture screen (LYRAL® + test compound) for OR10J5 activity enhancement; assay type: cell-based; conditions: LYRAL® 4.6 and test compound 300 μM; numbered by decreasing OR10J5 activity (span)
T1 construct: Lucy (cleavable leucine-rich signal peptide) (N); FLAG (N); Rho (first 20 aa of bovine rhodopsin) (N); expressed in transfected cells
T1 sequence (Q8NHC4 1-309 R233W): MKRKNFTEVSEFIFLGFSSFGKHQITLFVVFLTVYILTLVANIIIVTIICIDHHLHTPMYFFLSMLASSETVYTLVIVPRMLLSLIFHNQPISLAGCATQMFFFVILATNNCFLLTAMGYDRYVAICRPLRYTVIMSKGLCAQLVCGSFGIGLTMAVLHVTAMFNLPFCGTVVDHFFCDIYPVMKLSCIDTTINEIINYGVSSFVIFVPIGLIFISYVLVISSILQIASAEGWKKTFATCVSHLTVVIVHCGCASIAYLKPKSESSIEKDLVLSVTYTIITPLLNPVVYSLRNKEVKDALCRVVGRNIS
From the text: The Lucy-Flag-Rho-tagged receptor is co-transfected with the olfactory canonical G-protein Golf and exposed to a binary mixture of a single concentration of a floral muguet compound and a test compound.
A dose response curve showing the activation of OR10J5 in response to the floral muguet compound […], 4-(4-hydroxy-4-methylpentyl)cyclohex-3-ene-1-carbaldehyde or a mixture thereof (sold under the tradename LYRAL®, hereinafter referred to as “LYRAL®”) is shown in FIG. 15. Using a cell-based assay, OR10J5 activity was tested in a HEK293T cell line wherein the endogenous chaperone RTP1 gene has been activated and the odorant receptor chaperone was expressed according to the methods disclosed in International Patent Application Publication No. WO2016/201153 A1. The Flag-Rho-tagged receptor was co-transfected with the olfactory canonical G-protein Golf and was exposed to a binary mixture of a single concentration of LYRAL® and a test compound.
A library of volatile compounds was used to create binary mixtures of each compound with LYRAL® at approximately EC20, a concentration eliciting only approximately 20% of full activity level of OR10J5 by itself. An activation cell-based assay was used for the initial enhancer candidate identification. Single binary mixture-induced receptor activity was detected by measuring the cAMP increase in the cytosol using an HTRF (Homogenous Time-Resolved Fluorescence unit) based kit (CisBio, cAMP dynamic 2 kit, 62AM4PEJ).
800 binary mixtures were created by mixing a LYRAL® stock solution with a stock solution of each test compound to a final concentration 4.6 and 300 μM, respectively. Stock solutions were made of compounds dissolved in pure DMSO. Each mixture was presented to a cell line expressing the OR10J5 olfactory receptor. The final concentration of DMSO in each binary mixture was 0.1%, and had no visible effect on the cells (see FIG. 16).
The resulting activation was then measured and compared to LYRAL® alone (defining the baseline of the enhancement assay). The quality of the HTS process was determined and the window variability and signal reliability were assessed by calculating the Z′ value of each plate. […] These OR10J5 olfactory receptor agonists further confirmed that the dynamic range of the assay window was sufficient (as the responses recorded were well above baseline) and thus likely sensitive enough to detect even low levels of putative enhancement.

OR5AN1 = target: T2, OR5AN1 (Homo sapiens, UniProt Q8NGI8); experiment: OR5AN1 MUSCENONE® dose-response at serial enhancer concentrations, allosteric EC50 shift model; assay type: cell-based; conditions: enhancer 0 to 1 mM; for Kb: read-out: KB (equilibrium dissociation constant)
T2 construct: FLAG (N); Rho (first 20 aa of bovine rhodopsin) (N); expressed in transfected cells
T2 sequence (Q8NGI8 1-311): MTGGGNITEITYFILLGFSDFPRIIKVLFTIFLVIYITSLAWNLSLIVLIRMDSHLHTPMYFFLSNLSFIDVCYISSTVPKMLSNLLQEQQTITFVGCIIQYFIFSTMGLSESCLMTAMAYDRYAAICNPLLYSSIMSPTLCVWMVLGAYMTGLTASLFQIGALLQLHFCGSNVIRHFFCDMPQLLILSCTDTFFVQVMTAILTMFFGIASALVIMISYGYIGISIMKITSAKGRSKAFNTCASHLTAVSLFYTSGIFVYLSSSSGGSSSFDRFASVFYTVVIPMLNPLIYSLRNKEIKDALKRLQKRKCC
Description: The level of enhancement of OR5AN1's activation was evaluated at distinct concentrations of the enhancer. […] The curves were obtained by applying the simplified Allosteric EC50 shift effect equation (available in Prism5, v. 5.02) derived from the ternary complex interaction model. The enhancement levels recorded were not linearly dependent on the concentration of the enhancer, and the following key parameters values for a (the cooperativity factor) and KB (the equilibrium dissociation constant of TDA) obtained from the model: α=15.7 and KB=259 μM. α>1 is indicative of positive allosteric modulation.

[2] = target: T3, OR5AN1 olfactory receptor (Homo sapiens, UniProt Q8NGI8); experiment: OR5AN1 dose-response of musk agonist with and without modulator, and of candidate alone (EC50 shift, span); assay type: cell-based
T3 construct: FLAG (N); Rho (first 20 aa of bovine rhodopsin) (N); expressed in transfected cells
T3 sequence (Q8NGI8 1-311): T2 sequence (Q8NGI8 1-311)
Description: 15 candidates, marked as “enhancement” in Table 2 were identified. Strikingly, 80% of these putative enhancers (12/15) belonged to the same class of chemicals: unsaturated aliphatic aldehydes. Next, two parallel dose-response experiments to confirm the true enhancement properties of the potential candidates were performed. First, a dose-response of each individual candidate was performed to determine if it was an agonist by itself. Second, a MUSCENONE® dose-response curve in the presence and absence of a 250 μM concentration of the putative modulator was assessed for EC50 shifts.
Dose response curves to MUSCENONE® were obtained in the presence of 250 μM of each compound and compared to a dose-response curve of MUSCENONE® alone. The resulting enhancement was quantified by means of EC50-fold shift (potency increase) and the efficacy span ratio (efficacy increase).
The EC50-fold shift was obtained by […]. The span ratio was obtained by dividing the span of MUSCENONE®+compound by the reference span of MUSCENONE® alone. Specifically, diverse aliphatic α-β mono- or poly-unsaturated molecules have been compared.

human panelists = experiment: Human MUSCENONE® odor detection threshold (ODT), forced-choice triangle tests with background odor; assay type: in vivo; conditions: background compound at 0.1%; 2/3 correct responses
Description: Sensitivity of human individuals to MUSCENONE® was evaluated by performing an odor detection threshold (ODT) test. The ODT test consisted of identifying the concentration for which 50%, preferably 66%, of the panelists are able to determine which of three containers contains the target compound MUSCENONE® in a forced-choice triangle tests. Two tests were performed to calculate the ODT in mixtures containing MUSCENONE® plus a perceivable background odor of chemically similar molecules a) the enhancer tridecylenic aldehyde and b) the non-enhancing volatile compound, nonanal.
27 panelists were given a series of triangle tests with increasing concentration of MUSCENONE® in the presence of nonanal at a concentration of 0.1%. Within each triangle test, the three samples contained nonanal at 0.1% and one sample also contained MUSCENONE®. In each triangle test, the panelists were asked to identify the one sample that was different from the other two samples. The ODT was calculated by fitting a non-linear regression model onto the data and calculating the MUSCENONE® concentration at which the proportion of correct responses was equal to 2/3 (66%, the midpoint between chance rate 1/3 and all correct answers 1). […]

Olfr1440 = target: T4, Olfr1440 (Mus musculus, UniProt Q8VFV4); experiment: Olfr1440 MUSCENONE®-induced activation in the presence of enhancer (control); assay type: cell-based; conditions: FIG. 5
T4 construct: expressed in transfected cells
T4 sequence (Q8VFV4 1-315): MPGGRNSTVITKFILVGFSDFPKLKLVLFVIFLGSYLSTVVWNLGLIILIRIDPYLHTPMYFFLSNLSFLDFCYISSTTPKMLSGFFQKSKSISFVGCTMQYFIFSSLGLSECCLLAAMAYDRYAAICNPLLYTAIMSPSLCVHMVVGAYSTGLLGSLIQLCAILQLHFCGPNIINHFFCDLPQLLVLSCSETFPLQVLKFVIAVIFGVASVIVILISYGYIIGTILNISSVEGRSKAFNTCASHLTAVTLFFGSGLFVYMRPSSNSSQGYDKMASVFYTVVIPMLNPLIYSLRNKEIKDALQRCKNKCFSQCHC
Description: Furthermore and as a control, a similar experiment was performed on the mouse MUSCENONE® responsive odorant receptor Olfr1440, the ortholog of OR5AN1.

OR10J5 [3] = target: T5, OR10J5 (Homo sapiens, UniProt Q8NHC4, R233W); experiment: OR10J5 LYRAL® dose-response at serial enhancer concentrations, allosteric EC50 shift model; assay type: cell-based
T5 construct: Lucy (cleavable leucine-rich signal peptide) (N); FLAG (N); Rho (first 20 aa of bovine rhodopsin) (N); expressed in transfected cells
T5 sequence (Q8NHC4 1-309 R233W): T1 sequence (Q8NHC4 1-309 R233W)
Description: Functional dose-response experiments were performed to reveal the allosteric nature of the interaction between heliopropanal, 3-(4-methylcyclohex-3-en-1-yl)butanal, melonal and heptanal and OR10J5. The level of enhancement of OR10J5's activation was evaluated at distinct concentrations of each enhancer. Using the same cell-based assay described earlier, dose response curves of OR10J5 to LYRAL® in the presence of serial concentrations of the enhancers spanning from 0 to 600 μM were performed, see FIG. 19. The curves were obtained by applying the simplified Allosteric EC50 shift effect equation (available in Prism7) derived from the ternary complex interaction model. The enhancement levels recorded were not linearly dependent on the concentration of the enhancer, and the following key parameters values for α (the cooperativity factor) and KB (the equilibrium dissociation constant of the enhancer) were obtained from the model for each enhancer: heliopropanal, α=6.3 and KB=10 μM; 3-(4-methylcyclohex-3-en-1-yl)butanal, α=7.5 and KB=15 μM; melonal, α=4.1 and KB=16 μM; and heptanal; α=3.2 and KB=51 μM. α>1 is indicative of positive allosteric modulation.

OR10J5 [4] = target: T5, OR10J5; experiment: OR10J5 (+−)-2,5-dimethyl-2-indanmethanol dose-response with test compound; assay type: cell-based
Description: OR10J5 activity enhancement was tested with an additional agonist and with one of the test compounds and conditions described in the Examples above. Dose response curves to (+−)-2,5-dimethyl-2-indanmethanol was obtained in the presence of a steady concentration of the test compound and compared to a dose-response curve of the agonist alone. The resulting enhancement was quantified by means of EC50-fold shift (potency increase) and the efficacy span ratio (efficacy increase) as described above.

[5] = LYRAL®, enhancer 0 to 600 μM, read-out: KB (equilibrium dissociation constant of the enhancer)

## CC/C=C\CCCCC=O [Hit 23]
[1]
  Hit Type: Enhancement

## C=CC(C)CCCC(C)(C)O (stereo not drawn) [Hit 34]
[1]
  Hit Type: Agonist

## Cc1ccc(CC(C)C=O)cc1 (stereo not drawn) [Hit 36]
[1]
  Hit Type: Enhancement

## CCCCCC/C=C/C=O [Nonylenic aldehyde]
OR5AN1
  α (cooperativity factor): 28.8
  Kb: 96 µM

## COC(C)(C)CCCC(C)C=O (stereo not drawn) [Hit 43]
[1]
  Hit Type: Enhancement

## CCc1occc(=O)c1O [Hit 40]
[1]
  Hit Type: Enhancement

## CCCCCCCCC=O [Hit 33]
[1]
  Hit Type: Enhancement

## C[C@@H](CC=O)CCCC(C)(C)O [Hit 25]
[1]
  Hit Type: Agonist

## CCCCCCCCCC/C=C/C=O [TDA, tridecylenic aldehyde]
[2]; compound alone
  activation of OR5AN1 by the compound by itself: did not activate
[2]; compound alone, above approximately 100 μM
  activation as % of the MUSCENONE® activation window: less than 8%
[2]; enhancer at 250 μM
  maximal activation level (span) of MUSCENONE®: increased span
Human panelists
  MUSCENONE® ODT value when mixed with the compound: 0.09%
Olfr1440
  enhancement of Olfr1440 MUSCENONE®-induced activity: did not enhance

## CCCCCC/C=C/C=O [Hit 44]
[1]
  Hit Type: Enhancement

## CC1=CC[C@H](C(C)CC=O)CC1 (stereo partly drawn) [3-(4-methylcyclohex-3-en-1-yl)butanal]
OR10J5 [3]; LYRAL®, enhancer 0 to 600 μM
  α (cooperativity factor): 7.5
OR10J5 [3]; [5]
  Kb: 15 µM

## CCc1ccc(C=O)cc1 [Hit 41]
[1]
  Hit Type: Enhancement

## CC(C)=CCCC(C)C=O (stereo not drawn) [Hit 27]
[1]
  Hit Type: Enhancement

## CCCCCCC1CCCC(=O)O1 (stereo not drawn) [Hit 35]
[1]
  Hit Type: Enhancement

## CCCCCCC=O [Heptanal]
OR10J5 [3]; LYRAL®, enhancer 0 to 600 μM
  α (cooperativity factor): 3.2
OR10J5 [3]; [5]
  Kb: 51 µM

## CCCCCCCC=CC=O [Hit 2-decenal, 2-decenal]
OR5AN1
  α (cooperativity factor): 37.3
  Kb: 264 µM

## CC(C=O)Cc1ccc2c(c1)OCO2 (stereo not drawn) [heliopropanal]
OR10J5 [3]
  Kb: 10 µM
OR10J5 [3]; LYRAL®, enhancer 0 to 600 μM
  α (cooperativity factor): 6.3
OR10J5 [4]; within the dynamic range of the dose response
  efficacy increase of (+−)-2,5-dimethyl-2-indanmethanol: 1.7 fold

## O=Cc1ccccc1 [Hit 28]
[1]
  Hit Type: Enhancement

## C=CCCCCCCCCC(=O)O [undecenoic acid]
[2]; 250 μM of each compound
  enhancement of OR5AN1 MUSCENONE® response (SAR): absence of enhancement

## CCCCCCCCC=O [nonanal, reference compound]
Human panelists
  MUSCENONE® ODT value when mixed with the compound: 0.93%

## CCCCC/C=C/C=C/C=O [Hit 32]
[1]
  Hit Type: Enhancement

## CC(C)=CCCC1=CCC(C)(C=O)CC1 (stereo not drawn) [Hit 26]
[1]
  Hit Type: Enhancement

## CC1=CC(C)C(C=O)C(C)C1 (stereo not drawn) [Hit 39]
[1]
  Hit Type: Enhancement

## CC(C)=CCCC(C)C=O (stereo not drawn) [melonal]
OR10J5 [3]; LYRAL®, enhancer 0 to 600 μM
  α (cooperativity factor): 4.1
OR10J5 [3]; [5]
  Kb: 16 µM

## CCCCCC=O [Hit 24]
[1]
  Hit Type: Enhancement

## Cc1ccc2c(c1)CC(C)(CO)C2 (racemic) [(+−)-2,5-dimethyl-2-indanmethanol, reference compound]
OR10J5 [4]
  agonist type on OR10J5: partial agonist

## C[C@@H]1CC[C@H]2[C@H](C)C(=O)O[C@@H]2C1 [Hit 42]
[1]
  Hit Type: Enhancement

## O=Cc1ccc2c(c1)OCO2 [Hit 37]
[1]
  Hit Type: Enhancement
